Source: patent publication US20060009493A1, “Indolinone hydrazides as c-Met inhibitors” (Sugen, Inc., priority 2003, published 2006)
pIC50: −log10 of the molar value.

Each compound was assayed against T1, GST fusion protein containing the Met kinase domain (Homo sapiens, UniProt P08581) (assay: MET Transphosphorylation Assay (ELISA, poly(Glu,Tyr) 4:1 substrate)). Conditions: met transphosphorylation of poly(glutamic acid:tyrosine 4:1) substrate; two values in a cell separated by '/'.
T1 construct: Purified GST fusion protein containing the Met kinase domain, Sugen, Inc
Format: biochemical
In short: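 Poly(Glu-Tyr)-coated wells received the GST-Met kinase domain (10 ng/well) with compound in DMSO for 15 minutes. The reaction was started with ATP/MnCl2 in HEPES pH 7.5 buffer with vanadate, run 5 minutes, and stopped with EDTA. Phosphotyrosine was detected by anti-pTyr antibody, HRP secondary and ABTS/H2O2.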

T1 sequence (P08581 1078-1345 limits assumed): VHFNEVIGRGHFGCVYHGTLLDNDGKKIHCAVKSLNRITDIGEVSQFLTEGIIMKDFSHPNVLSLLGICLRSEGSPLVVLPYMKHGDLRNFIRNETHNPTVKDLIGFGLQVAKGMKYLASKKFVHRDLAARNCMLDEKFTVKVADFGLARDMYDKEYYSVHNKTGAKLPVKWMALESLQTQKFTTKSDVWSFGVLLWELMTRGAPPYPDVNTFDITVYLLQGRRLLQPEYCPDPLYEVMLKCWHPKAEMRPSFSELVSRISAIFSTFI

pIC50 | Compound
7.66 | O=C(Cc1ccc(O)cc1)N/N=C1\C(=O)Nc2c(Cl)cccc21 [II-36, (4-Hydroxy-phenyl)-acetic acid [(3Z)-7-chloro-2-oxo-1,2-dihydro-indol-3-ylidene]-hydrazide]
4.97 | O=C(Cc1cc[n+]([O-])cc1)N/N=C1\C(=O)Nc2ccccc21 [II-37, (1-Oxy-pyridin-4-yl)-acetic acid [(3Z)-2-oxo-1,2-dihydro-indol-3-ylidene]-hydrazide]
7.89 | O=C(Cc1ccc(O)cc1)N/N=C1\C(=O)Nc2c(Cl)ccc(Cl)c21 [II-38, (4-Hydroxy-phenyl)-acetic acid [(3Z)-4,7-dichloro-2-oxo-1,2-dihydro-indol-3-ylidene]-hydrazide]
8.10 | O=C(Cc1ccc(O)cc1)N/N=C1\C(=O)Nc2cccc(Cl)c21 [II-39, (4-Hydroxy-phenyl)-acetic acid [(3Z)-4-chloro-2-oxo-1,2-dihydro-indol-3-ylidene]-hydrazide]
6.62 | COc1cc(CC(=O)N/N=C2\C(=O)Nc3ccccc32)ccc1O [II-40, (4-Hydroxy-3-methoxy-phenyl)-acetic acid [(3Z)-2-oxo-1,2-dihydro-indol-3-ylidene]-hydrazide]
5.75 | O=C(Cc1ccc(O)c(O)c1)N/N=C1\C(=O)Nc2ccccc21 [II-41, (3,4-Dihydroxy-phenyl)-acetic acid [(3Z)-2-oxo-1,2-dihydro-indol-3-ylidene]-hydrazide]
7.44 | O=C(Cc1ccc(O)c(Cl)c1)N/N=C1\C(=O)Nc2ccccc21 [II-42]
7.27 | O=C(Cc1ccc(O)c(F)c1)N/N=C1\C(=O)Nc2ccccc21 [II-43, (3-Fluoro-4-hydroxy-phenyl)-acetic acid [(3Z)-2-oxo-1,2-dihydro-indol-3-ylidene]-hydrazide]
7.66 | CC(C(=O)N/N=C1\C(=O)Nc2ccc(Cl)c(Cl)c21)c1ccc(O)cc1 (stereo not shown) [II-44]
6.96 | COc1ccc(CC(=O)N/N=C2\C(=O)Nc3c(C)ccc(C)c32)cn1 [II-45, (6-Methoxy-pyridin-3-yl)-acetic acid [(3Z)-4,7-dimethyl-2-oxo-1,2-dihydro-indol-3-ylidene]-hydrazide]
6.21 | O=C(Cc1ccc(O)c([N+](=O)[O-])c1)N/N=C1\C(=O)Nc2ccccc21 [II-46, (4-Hydroxy-3-nitro-phenyl)-acetic acid [(3Z)-2-oxo-1,2-dihydro-indol-3-ylidene]-hydrazide]
7.66 | Cc1cccc2c1/C(=N/NC(=O)Cc1ccc(O)cc1)C(=O)N2 [II-47, (4-Hydroxy-phenyl)-acetic acid [(3Z)-4-methyl-2-oxo-1,2-dihydro-indol-3-ylidene]-hydrazide]
> 8.04 | Cc1ccc(C)c2c1NC(=O)/C2=N\NC(=O)Cc1ccc(O)c(F)c1 [II-49, (3-Fluoro-4-hydroxy-phenyl)-acetic acid [(3Z)-4,7-dimethyl-2-oxo-1,2-dihydro-indol-3-ylidene]-hydrazide]
7.43 | Cc1ccc(C)c2c1NC(=O)/C2=N\NC(=O)Cc1ccc(O)nc1 [II-50, (6-Hydroxy-pyridin-3-yl)-acetic acid [(3Z)-4,7-dimethyl-2-oxo-1,2-dihydro-indol-3-ylidene]-hydrazide]
7.77 | O=C(Cc1ccc(O)cc1)N/N=C1\C(=O)Nc2cc(Cl)ccc21 [II-51, (4-Hydroxy-phenyl)-acetic acid [(3Z)-6-chloro-2-oxo-1,2-dihydro-indol-3-ylidene]-hydrazide]
6.68 | O=C(Cc1ccc(F)cc1)N/N=C1\C(=O)Nc2ccc(Cl)c(Cl)c21 [II-52, (4-Fluoro-phenyl)-acetic acid [(3Z)-4,5-dichloro-2-oxo-1,2-dihydro-indol-3-ylidene]-hydrazide]
7.64 | Cc1ccc2c(c1Br)/C(=N/NC(=O)Cc1ccc(O)cc1)C(=O)N2 [II-53, (4-Hydroxy-phenyl)-acetic acid [3Z)-(4-bromo-5-methyl-2-oxo-1,2-dihydro-indol-3-ylidene]-hydrazide]
> 8.05 | O=C(Cc1ccc(O)c(Cl)c1)N/N=C1\C(=O)Nc2c(Cl)ccc(Cl)c21 [II-54, (3-Chloro-4-hydroxy-phenyl)-acetic acid [(3Z)-4,7-dichloro-2-oxo-1,2-dihydro-indol-3-ylidene)-hydrazide]
> 8.05 | O=C(Cc1ccc(O)c(F)c1)N/N=C1\C(=O)Nc2c(Cl)ccc(Cl)c21 [II-55, (3-Fluoro-4-hydroxy-phenyl)-acetic acid [(3Z)-4,7-dichloro-2-oxo-1,2-dihydro-indol-3-ylidene]-hydrazide]
7.68 | O=C(Cc1ccc(O)nc1)N/N=C1\C(=O)Nc2c(Cl)ccc(Cl)c21 [II-56, (6-Hydroxy-pyridin-3-yl)-acetic acid [(3Z)-4,7-dichloro-2-oxo-1,2-dihydro-indol-3-ylidene]-hydrazide]

pIC50 | Compound
7.80 | Cc1ccc(C)c2c1NC(=O)/C2=N\NC(=O)C(C)c1ccc(O)cc1 (stereo not shown) [II-57, 2-(4-Hydroxy-phenyl)-propionic acid [(3Z)-4,7-dimethyl-2-oxo-1,2-dihydro-indol-3-ylidene]-hydrazide]
7.17 | Cc1ccc2c(c1)/C(=N/NC(=O)Cc1ccc(O)cc1)C(=O)N2 [II-58, (4-Hydroxy-phenyl)-acetic acid [(3Z)-5-methyl-2-oxo-1,2-dihydro-indol-3-ylidene]-hydrazide]
7.35 | Cn1cc(CC(=O)N/N=C2\C(=O)Nc3c(Cl)ccc(Cl)c32)ccc1=O [II-59, (1-Methyl-6-oxo-1,6-dihydro-pyridin-3-yl)-acetic acid [(3Z)-4,7-dichloro-2-oxo-1,2-dihydro-indol-3-ylidene]-hydrazide]
7.19 | COc1cccc2c1NC(=O)/C2=N\NC(=O)Cc1ccc(O)cc1 [II-60, (4-Hydroxy-phenyl)-acetic acid [(3Z)-7-methoxy-2-oxo-1,2-dihydro-indol-3-ylidene]-hydrazide]
7.06 | O=C(Cc1ccc(O)cc1)N/N=C1\C(=O)Nc2c(Cl)cc(Cl)cc21 [II-61, (4-Hydroxy-phenyl)-acetic acid [(3Z)-5,7-dichloro-2-oxo-1,2-dihydro-indol-3-ylidene)-hydrazide]
7.02 | O=C(Cc1ccc(O)cc1)N/N=C1\C(=O)Nc2ccc([N+](=O)[O-])cc21 [II-62, (4-Hydroxy-phenyl)-acetic acid [(3Z)-5-nitro-2-oxo-1,2-dihydro-indol-3-ylidene]-hydrazide]
> 8.04 | Cc1cc(Cl)cc2c1NC(=O)/C2=N\NC(=O)Cc1ccc(O)cc1 [II-63, (4-Hydroxy-phenyl)-acetic acid [(3Z)-5-chloro-7-methyl-2-oxo-1,2-dihydro-indol-3-ylidene]hydrazide]
< 4.70 | O=C(Cc1ccc(O)c(O)c1)N/N=C1\C(=O)Nc2ccccc21 [II-64, (3,4-Dihydroxy-phenyl)-acetic acid [(3E)-2-oxo-1,2-dihydro-indol-3-ylidene]-hydrazide]
7.89 | O=C(Cc1ccncc1)N/N=C1\C(=O)Nc2c(Cl)ccc(Cl)c21 [II-66, Pyridin-4-yl-acetic acid [(3Z)-4,7-dichloro-2-oxo-1,2-dihydro-indol-3-ylidene]-hydrazide]
7.70 | O=C(Cc1ccc(F)cc1)N/N=C1\C(=O)Nc2c(Cl)ccc(Cl)c21 [II-67, (4-Fluoro-phenyl)-acetic acid [(3Z)-4,7-dichloro-2-oxo-1,2-dihydro-indol-3-ylidene)-hydrazide]
5.84 | CC(C)C(C(=O)N/N=C1\C(=O)Nc2ccccc21)c1ccc(O)cc1 (stereo not shown) [II-68, 2-(4-Hydroxy-phenyl)-3-methyl-butyric acid [(3Z)-2-oxo-1,2-dihydro-indol-3-ylidene)-hydrazide]
6.77 | CC(C)C(C(=O)N/N=C1\C(=O)Nc2c(Cl)ccc(Cl)c21)c1ccc(O)cc1 (stereo not shown) [II-69, 2-(4-Hydroxy-phenyl)-3-methyl-butyric acid [(3Z)-4,7-dichloro-2-oxo-1,2-dihydro-indol-3-ylidene)-hydrazide]
< 4.70 | COc1ccc(CC(=O)N/N=C2\C(=O)Nc3c(Cl)ccc(Cl)c32)cc1C [II-70, (4-Methoxy-3-methyl-phenyl)-acetic acid [(3Z)-4,7-dichloro-2-oxo-1,2-dihydro-indol-3-ylidene]-hydrazide]
< 4.70 | O=C(Cn1ccc(=O)[nH]c1=O)N/N=C1\C(=O)Nc2ccccc21 [II-71, (2,4-Dioxo-3,4-dihydro-2H-pyrimidin-1-yl)-acetic acid [(3Z)-2-oxo-1,2-dihydro-indol-3-ylidene]-hydrazide]
< 4.70 | O=C(Cn1ccc(=O)[nH]c1=O)N/N=C1\C(=O)Nc2c(Cl)ccc(Cl)c21 [II-72, (2,4-Dioxo-3,4-dihydro-2H-pyrimidin-1-yl)-acetic acid [(3Z)-4,7-dichloro-2-oxo-1,2-dihydro-indol-3-ylidene]-hydrazide]
< 4.70 | Cc1cn(CC(=O)N/N=C2\C(=O)Nc3ccccc32)c(=O)[nH]c1=O [II-73, (5-Methyl-2,4-dioxo-3,4-dihydro-2H-pyrimidin-1-yl)-acetic acid [(3Z)-2-oxo-1,2-dihydro-indol-3-ylidene]-hydrazide]
< 4.70 | Cc1cn(CC(=O)N/N=C2\C(=O)Nc3c(Cl)ccc(Cl)c32)c(=O)[nH]c1=O [II-74, (5-Methyl-2,4-dioxo-3,4-dihydro-2H-pyrimidin-1-yl)-acetic acid [(3Z)-4,7-dichloro-2-oxo-1,2-dihydro-indol-3-ylidene]-hydrazide]
7.05 | O=C(Cc1ccccc1)N/N=C1\C(=O)Nc2c(Cl)ccc(Cl)c21 [II-75, Phenyl-acetic acid [(3Z)-4,7-dichloro-2-oxo-1,2-dihydro-indol-3-ylidene]-hydrazide]
7.34 | O=C(CCc1ccc(O)cc1)N/N=C1\C(=O)Nc2c(Cl)ccc(Cl)c21 [II-76, 3-(4-Hydroxy-phenyl)-propionic acid [(3Z)-4,7-dichloro-2-oxo-1,2-dihydro-indol-3-ylidene]-hydrazide]
7.82 | CC(C(=O)N/N=C1\C(=O)Nc2c(Cl)ccc(Cl)c21)c1ccc(O)cc1 (stereo not shown) [II-77, 2-(4-Hydroxy-phenyl)-propionic acid [(3Z)-4,7-dichloro-2-oxo-1,2-dihydro-indol-3-ylidene]-hydrazide]
